Assay results as given in patent US6368831B1, “Treatment of hyperproliferative disorders” (Childrens Hospital Los Angeles, priority 1998, dated 2002).

Key:
[1] = tested on: SMS-LHN neuroblastoma cell line; test: Ceramide assay, SMS-LHN; format: cell-based, human; details: SMS-LHN (drug sensitive); 10 μM fenretinide; 20% O2
Protocol: The ceramide assay is carried out as follows. 500,000 neuroblastoma cells/well are replicate plated in six-well tissue culture plates and allowed to attach overnight. Tritiated (3H)-palmitic acid (a lipid precursor) is added to 1 microcure/cc and fenretinide added to a final concentration of 10 uM. Control cells receive tritiated label but no drug. At the indicated time, cells are harvested from triplicate wells, washed, and lipids extracted with methanol, acetic acid, water, and chloroform. The organic layer (containing the tritium label incorporated into lipids) is isolated and dried down by a nitrogen stream. The lipid sample is dissolved in chloroform: methanol and 10% of each sample assayed to estimate the total tritium in the lipid sample. The lipids in sample fractions, together with unlabeled ceramide standards, are then separated by thin layer chromatography and the plates developed by iodine vapor. The region of the plate corresponding to the ceramide standard is scraped and the tritium of the co-migrating sample ceramide is measured. Total sample ceramide is then expressed as percent tritium label in ceramide versus tritium in total lipid. […]

[2] = tested on: CHLA-90 neuroblastoma cells; test: DIMSCAN cytotoxicity assay, CHLA-90; format: cell-based; details: HPR 3-10 μM, BOC-d-fmk 40 μM, +24 hours, P=0.002 at 3 μM, P<0.001 at >3 μM
Protocol: Cytotoxicity is determined using the DIMSCAN assay system (R. Proffitt et al., Cytometry 24, 204-213 (1996); T. Frgala et al., Proc. AACR, 36, 303 (1995). The system employs digital imaging microscopy to quantify viable cells, which selectively accumulate fluorescein diacetate to become brightly fluorescent. The system is capable of measuring cytotoxicity over a 4-5 log dynamic range by quenching the residual fluorescence of dead and dying cells with eosin Y and quantifying the total fluorescence of viable cells using digital thresholding. Measured fluorescence is directly proportionate to the number of viable cells. A comparison of the total fluorescence of a drug-treated cell population to the fluorescence of a similar number of untreated cells yields a survival fraction. In brief, 5000 to 10,000 SK-N-RA neuroblastoma cells/well are replicate plated into 60 wells of a 96-well tissue culture plate in 0.1 cc media and allowed to attach overnight. Drug(s) are then added in 0.05 cc media to the final concentrations indicated. There are 12 wells treated per drug concentration. Twelve wells receive drug-vector only to the appropriate final concentration and serve as controls for the plate. Cells are incubated for 96-120 hours at 37° C. in 5% CO2. Fluorescein diacetate is then added to each well in 0.05 cc media to a final concentration of 8 microgram/cc. Cells are incubated for a further 15 minutes at 37° C. and 0.03 cc of 0.5% eosin Y is added to each well. Total fluorescence of viable cells is then measured by digital imaging microscopy.
Methods. Cells were added in 100 μL whole medium per well to 96-well microplates for DIMSCAN cytotoxicity assay as previously described. Cell lines used were the neuroblastoma cell lines CHLA-90 and LAN-6. At Time=0, either all-trans-retinoic acid (ATRA), 13-cis-retinoic acid (13-cis-RA) or a combination of retinoid plus safingol at a 3:1 molar ratio were added in 50 μL whole medium. Plates were incubated and assayed for cytotoxicity by DIMSCAN assay at +120 for CHLA-90 cells and+144 hours for LAN-6 cells.
Methods. To determine the manner in which 4-HPR or HPR+safingol induced cell death in neuroblastoma cells, morphological evidence of apoptosis and/or necrosis was assessed in CHLA-90 cells in the presence or absence of a specific as inhibitor of apoptosis, the neural cell-penetrant, pan-caspase enzyme inhibitor, BOC-d-fink (Enzyme Systems Products, Livermore, Calif.). […] CHLA-90 cells were plated in duplicate in whole medium in Lab Tek chamber slides (Nunc, Naperville, Ill.), allowed to attach for 24 hours, and then treated in the presence or absence of BOC-d-fink (40 μM) for one hour prior to treatment with HPR (10 μM). Control cells were treated with vehicle solvents of 0. 1% ethanol (4-HPR) and/or 0.2% DMSO (BOC-d-fink). Morphological features of apoptosis (DNA condensation and/or apoptotic bodies) were visualized in undetached cells at +24 or +48 hours using blue nuclear fluorescence induced by the supravital DNA stain Hoechst 33342 (10 μg/ml for 30 mins at 37° C.), while necrotic cells and advanced apoptotic cells were recognized by red fluorescent staining with propidium iodide (0.5 μM/ml). Red fluorescently-staining cells with condensed nuclear remnants were scored as apoptotic cells. For cells assayed at +48 hours, additional BOC-d-fink (40 μM) or appropriate control vehicle was added at +24 hours. Cells were observed using filters appropriate for each dye sequentially on an Olympus Vanox epifluorescence microscope. Mutiple random fields of cells (of ˜100-500 cells each) were counted and photographed for viable cells, apoptotic cells, and necrotic cells. To further examine cells treated with HPR, cytotoxicity assays were performed on CHLA-90 cells pretreated with or without 40 μM BOC-d-fmk for one hour prior to the addition of 4-HPR (3-10 μM) and assayed at +24 hours by DIMSCAN assay to assess the effect of caspase inhibition on viability. […]

CC1=C(/C=C/C(C)=C/C=C/C(C)=C/C(=O)Nc2ccc(O)cc2)C(C)(C)CCC1 [HPR, all-trans-N-(4-hydroxyphenyl)retinamide]
ceramide generation [1]: generate ceramide | cytotoxicity in the presence of BOC-d-fmk [2]: significant cytotoxicity
